The text below walks through data of ChEMBL document CHEMBL1201862, “PubChem BioAssay data set” (2004).

Molecules are shown by their SMILES.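 Values below derive from 48-hour exposures of cells grown in 96-well plates, with endpoints linearly interpolated between the two concentrations bracketing the appropriate inhibition level. GI50 is the concentration that inhibits growth by half.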 Active and inactive are the calls of the source. Rule as the data show it: active = GI50 up to about 1.1 µM and inactive = higher.

Some test systems named below: A498; ACHN; CCRF-CEM; DU-145; EKVX; HCT-116; HOP-62; IGROV-1; KM12; LOX IMVI; MDA-MB-435; Malme-3M; RPMI-8226; SF-268; SF-539; SK-MEL-28; SK-MEL-2; SN12C; SW-620.
Assay in all cases: inhibition of tumour cell growth, NCI panel, 48 h

`N=C(N)/N=C(\N)Nc1ccc(C(=O)O)cc1`: the GI50 in the test with A498, in the test on ACHN, in the test with CCRF-CEM, in the test on DU-145, in the test with EKVX and in the test on HCT-116 was > 100 µM (inactive) in each case. Further, the GI50 in the test with HOP-62, in the test on IGROV-1, in the test on KM12, in the test with LOX IMVI, in the test on MDA-MB-435 and in the test on Malme-3M was > 100 µM (inactive) each time. Moreover, the GI50 in the test on RPMI-8226 was > 100 µM (inactive); in the test on SF-268 it was > 100 µM (inactive); with SF-539 it was > 100 µM (inactive); in the test with SK-MEL-28 it was > 100 µM (inactive); with SK-MEL-2 it was > 100 µM (inactive); in the test on SN12C, 43.1 µM (inactive). Besides, in the test with SW-620, the GI50 is > 100 µM (inactive).

Regarding `Cc1cc(C)c(S(=O)(=O)N(CCCN)OCCCON(CCCN)S(=O)(=O)c2c(C)cc(C)cc2C)c(C)c1`, the GI50 is 3.38 µM (inactive) with A498; 15.3 µM (inactive) in the test with ACHN; 2.3 µM (inactive) in the test with CCRF-CEM; 1.71 µM (inactive) in the test with DU-145; 5.92 µM (inactive) in the test on EKVX; 1.75 µM (inactive) in the test with HCT-116. For the same compound, the GI50 in the test on HOP-62 is 1.91 µM (inactive); with IGROV-1 it was 1.98 µM (inactive); in the test on KM12 it was 1.9 µM (inactive); with LOX IMVI, 1.87 µM (inactive); in the test with MDA-MB-435 it was 2.03 µM (inactive); in the test on Malme-3M it was 0.879 µM (active). Moreover, the GI50 is 2.38 µM (inactive) in the test with RPMI-8226; 1.42 µM (inactive) in the test with SF-268; 2.17 µM (inactive) with SF-539; 1.91 µM (inactive) in the test with SK-MEL-28; 1.79 µM (inactive) in the test on SK-MEL-2; 3.91 µM (inactive) in the test with SN12C. Also, the GI50 in the test on SW-620 was 2.49 µM (inactive).

Take `Clc1cccc(Cl)c1C1SCc2nc3ncccc3n21` (stereo not given): the GI50 in the test with A498 is > 100 µM (inactive); in the test with ACHN, > 100 µM (inactive); in the test on CCRF-CEM, 92.3 µM (inactive); in the test on DU-145 it was > 100 µM (inactive); with EKVX it was > 100 µM (inactive); in the test with HCT-116, 94.6 µM (inactive). For the same compound, the GI50 with HOP-62 is > 100 µM (inactive); in the test on IGROV-1, > 100 µM (inactive); with KM12, 52.8 µM (inactive); in the test on LOX IMVI, > 100 µM (inactive); in the test on MDA-MB-435 it was 39.4 µM (inactive); with Malme-3M, 55.8 µM (inactive). Further, the GI50 was 80.4 µM (inactive) in the test on RPMI-8226; > 100 µM (inactive) in the test on SF-268; > 100 µM (inactive) with SF-539; > 100 µM (inactive) in the test with SK-MEL-28; > 100 µM (inactive) in the test on SK-MEL-2; > 100 µM (inactive) in the test with SN12C. Besides, the GI50 in the test with SW-620 was > 100 µM (inactive).

In the case of `O=C(Cc1nc2ncccc2[nH]c1=O)c1c[nH]c2ccccc12`, the GI50 in the test on A498 is 17.7 µM (inactive); in the test with ACHN, 16.5 µM (inactive); in the test with CCRF-CEM it was 13.4 µM (inactive); with DU-145 it was 17.5 µM (inactive); with EKVX it was 21.4 µM (inactive); in the test on HCT-116 it was 22.2 µM (inactive). The GI50 is 18.7 µM (inactive) in the test on HOP-62; 17.3 µM (inactive) in the test with IGROV-1; 17.5 µM (inactive) in the test with KM12; 20.7 µM (inactive) in the test with LOX IMVI; 15.9 µM (inactive) with MDA-MB-435; 17.6 µM (inactive) with Malme-3M. In addition, the GI50 in the test with RPMI-8226 is 16.7 µM (inactive); in the test on SF-268, 14.9 µM (inactive); in the test on SF-539 it was 16.6 µM (inactive); in the test on SK-MEL-28, 15.1 µM (inactive); with SK-MEL-2, 14.9 µM (inactive); in the test with SN12C, 18.2 µM (inactive). For the same compound, the GI50 in the test with SW-620 was 17.1 µM (inactive).

As to `CC(C)=CC[C@]12CCN(C)[C@H]1N(S(=O)(=O)c1ccccc1)c1ccccc12`, the GI50 in the test with A498 was > 100 µM (inactive); in the test with ACHN, > 54.2 µM (inactive); in the test with CCRF-CEM, > 50.7 µM (inactive); with DU-145, > 30.8 µM (inactive); in the test on EKVX it was > 24.2 µM (inactive); in the test on HCT-116, > 44.6 µM (inactive). The GI50 was > 45.4 µM (inactive) in the test with HOP-62; > 56.9 µM (inactive) in the test on IGROV-1; 26.1 µM (inactive) in the test with KM12; > 37.1 µM (inactive) in the test on LOX IMVI; > 44.7 µM (inactive) in the test with MDA-MB-435; > 49.2 µM (inactive) in the test with Malme-3M. The GI50 was 29.9 µM (inactive) in the test on RPMI-8226; > 44.6 µM (inactive) in the test with SF-268; 58.9 µM (inactive) with SF-539; > 64.6 µM (inactive) with SK-MEL-28; 15.5 µM (inactive) in the test with SK-MEL-2; > 62.2 µM (inactive) in the test with SN12C. In addition, the GI50 with SW-620 is > 60.3 µM (inactive).

On to `Cc1cn(C2CC(N=[N+]=[N-])C(CO)O2)c(=O)n(CCCCBr)c1=O` (stereo not given), for which the GI50 was > 100 µM (inactive) with A498; > 100 µM (inactive) in the test on ACHN; < 0.01 µM (active) in the test on CCRF-CEM; > 100 µM (inactive) in the test on DU-145; > 100 µM (inactive) with EKVX; > 100 µM (inactive) in the test with HCT-116. The GI50 in the test with HOP-62 is > 100 µM (inactive); in the test on IGROV-1, > 100 µM (inactive); with KM12, > 100 µM (inactive); in the test on LOX IMVI, 89.7 µM (inactive); in the test on MDA-MB-435 it was 80.4 µM (inactive); in the test with Malme-3M, > 100 µM (inactive). Also, the GI50 was 50.7 µM (inactive) in the test with RPMI-8226; > 100 µM (inactive) in the test on SF-268; > 100 µM (inactive) in the test with SF-539; > 100 µM (inactive) in the test on SK-MEL-28; 61 µM (inactive) in the test with SK-MEL-2; 59.3 µM (inactive) in the test with SN12C. Further, in the test on SW-620, the GI50 was > 100 µM (inactive).

For `O=C1CSC(c2ccccc2)N1c1ccc(-n2c(-c3ccccc3)nc3ccccc3c2=O)cc1` (stereo not given), the GI50 was > 100 µM (inactive) in the test with A498; 47.2 µM (inactive) with ACHN; 36.3 µM (inactive) in the test with CCRF-CEM; > 100 µM (inactive) with DU-145; > 75.7 µM (inactive) with EKVX; 39.2 µM (inactive) in the test with HCT-116. Besides, the GI50 is > 100 µM (inactive) with HOP-62; 34.8 µM (inactive) in the test with IGROV-1; 41.1 µM (inactive) with KM12; 50.5 µM (inactive) in the test with LOX IMVI; 63.4 µM (inactive) in the test with MDA-MB-435; > 92.5 µM (inactive) with Malme-3M. Also, the GI50 in the test with RPMI-8226 is 42.6 µM (inactive); in the test on SF-268, 96.8 µM (inactive); in the test on SF-539 it was 65.2 µM (inactive); in the test with SK-MEL-28, > 80.4 µM (inactive); in the test on SK-MEL-2 it was > 100 µM (inactive); in the test with SN12C, 99.3 µM (inactive). In addition, the GI50 in the test with SW-620 is > 100 µM (inactive).

In the case of `O=[N+]([O-])c1ccc(C2ON=C(c3ccccc3)N2C23CC4CC(CC(C4)C2)C3)cc1` (stereo not given), the GI50 in the test on A498, in the test with ACHN, in the test on CCRF-CEM, with DU-145, in the test with EKVX and with HCT-116 was > 10 µM (inactive) in each case. The GI50 with HOP-62, in the test with IGROV-1, in the test with KM12, with LOX IMVI, in the test on MDA-MB-435 and in the test with Malme-3M was > 10 µM (inactive) in each case. In addition, the GI50 with RPMI-8226 is > 10 µM (inactive); with SF-268, > 10 µM (inactive); in the test with SF-539, 2.89 µM (inactive); in the test on SK-MEL-28, > 10 µM (inactive); in the test with SK-MEL-2, > 10 µM (inactive); with SN12C, > 10 µM (inactive). Further, the GI50 in the test on SW-620 is > 10 µM (inactive).

Regarding `Cc1nc2n(c1/C=C1/C(=O)Nc3ccccc31)CCS2`, the GI50 with A498 was 31.2 µM (inactive); in the test on ACHN, 75.3 µM (inactive); in the test with CCRF-CEM it was 47.1 µM (inactive); in the test with DU-145 it was 53.8 µM (inactive); in the test on EKVX, 46.7 µM (inactive); with HCT-116, 33.6 µM (inactive). In addition, the GI50 in the test with HOP-62 was > 100 µM (inactive); with IGROV-1, 91 µM (inactive); in the test on KM12 it was 31.1 µM (inactive); with LOX IMVI, 72.4 µM (inactive); with MDA-MB-435, 14.8 µM (inactive); with Malme-3M it was 56 µM (inactive). Further, the GI50 in the test on RPMI-8226 was 47.1 µM (inactive); in the test with SF-268, 81.8 µM (inactive); in the test with SF-539, 41.5 µM (inactive); with SK-MEL-28 it was 78 µM (inactive); with SK-MEL-2, 5.74 µM (inactive); in the test with SN12C it was 56.1 µM (inactive). Also, in the test with SW-620, the GI50 is 47.4 µM (inactive).

`C[n+]1[n-]o/c(=N\N=O)c1-c1cc(-c2/c(=N/N=O)o[n-][n+]2C)cc(-c2/c(=N\N=O)o[n-][n+]2C)c1`: the GI50 in the test on A498, with ACHN, in the test with CCRF-CEM, with DU-145, with EKVX and with HCT-116 was > 100 µM (inactive) in each case. Moreover, the GI50 with HOP-62, in the test with IGROV-1, in the test with KM12, in the test on LOX IMVI, with MDA-MB-435 and in the test on Malme-3M was > 100 µM (inactive) each time. In addition, the GI50 in the test on RPMI-8226, with SF-268, in the test on SF-539, in the test with SK-MEL-28, with SK-MEL-2 and with SN12C was > 100 µM (inactive) each time. Besides, in the test on SW-620, the GI50 is > 100 µM (inactive).
